Experimental findings from ChEMBL document CHEMBL1142791, “Design, synthesis, and evaluation of 2-phenoxy-indan-1-one derivatives as acetylcholinesterase inhibitors” (Bioorg Med Chem Lett, 2005) are described below.

Test [1] has as its target Butyrylcholinesterase (Rattus norvegicus, UniProt Q9JKC1). In words: In vitro inhibitory concentration against butyrylcholinesterase was determined using rat serum homogenate.
In test [2] the target is T1, Acetylcholinesterase (Rattus norvegicus, UniProt P37136).
T1 sequence (P37136 whole entry): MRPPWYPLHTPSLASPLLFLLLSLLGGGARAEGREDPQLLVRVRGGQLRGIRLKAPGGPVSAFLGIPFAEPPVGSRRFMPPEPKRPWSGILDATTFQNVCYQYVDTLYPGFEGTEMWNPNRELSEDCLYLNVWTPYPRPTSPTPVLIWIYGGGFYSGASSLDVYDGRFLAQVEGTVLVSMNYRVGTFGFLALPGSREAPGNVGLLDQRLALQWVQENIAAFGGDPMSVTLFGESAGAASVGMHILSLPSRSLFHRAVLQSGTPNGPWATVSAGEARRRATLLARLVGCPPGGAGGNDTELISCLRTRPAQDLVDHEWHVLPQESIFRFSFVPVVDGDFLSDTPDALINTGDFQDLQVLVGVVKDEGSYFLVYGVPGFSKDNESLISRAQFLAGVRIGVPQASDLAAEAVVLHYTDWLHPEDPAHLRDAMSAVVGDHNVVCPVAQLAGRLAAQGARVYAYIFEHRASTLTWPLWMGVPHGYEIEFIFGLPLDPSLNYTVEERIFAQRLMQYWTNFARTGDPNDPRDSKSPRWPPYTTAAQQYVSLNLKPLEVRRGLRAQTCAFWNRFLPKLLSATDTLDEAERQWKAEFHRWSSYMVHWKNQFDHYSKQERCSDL
Description: In vitro inhibitory concentration against rat cortex acetylcholinesterase

Butyrylcholinesterase, sequence (Q9JKC1 whole entry): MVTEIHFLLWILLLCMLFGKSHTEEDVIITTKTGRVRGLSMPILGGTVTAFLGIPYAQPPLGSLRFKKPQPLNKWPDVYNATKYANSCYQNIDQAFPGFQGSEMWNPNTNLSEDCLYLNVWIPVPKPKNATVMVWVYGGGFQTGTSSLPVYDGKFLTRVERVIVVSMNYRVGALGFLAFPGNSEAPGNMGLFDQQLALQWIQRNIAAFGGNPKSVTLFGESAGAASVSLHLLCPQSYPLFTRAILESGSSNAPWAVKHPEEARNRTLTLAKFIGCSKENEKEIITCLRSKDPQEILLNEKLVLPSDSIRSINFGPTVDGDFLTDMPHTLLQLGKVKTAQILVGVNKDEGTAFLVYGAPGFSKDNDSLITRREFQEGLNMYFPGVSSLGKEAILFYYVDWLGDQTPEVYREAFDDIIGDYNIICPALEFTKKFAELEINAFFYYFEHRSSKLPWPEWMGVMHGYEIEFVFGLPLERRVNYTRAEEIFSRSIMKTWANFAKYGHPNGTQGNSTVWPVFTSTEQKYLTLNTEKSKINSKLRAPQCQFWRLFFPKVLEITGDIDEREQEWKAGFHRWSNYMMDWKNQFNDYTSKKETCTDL

`COc1cc2c(cc1OC)C(=O)C(Oc1ccc(CN3CCOCC3)cc1)C2` (stereo not drawn): the figures for the IC50 in test [1] and in test [2] were 384 µM and 1.3 µM, respectively.
On to `COc1cc2c(cc1OC)C(=O)C(Oc1ccc(CN3CCCC3)cc1)C2` (stereo not drawn), for which the IC50 is 84.3 µM in test [1] and 0.05 µM in test [2].
Consider `COc1cc2c(cc1OC)C(=O)C(Oc1ccc(C(C)N3CCOCC3)cc1)C2` (stereo not drawn), for which the IC50 in test [1] was determined as 346 µM; in test [2] it was 3.14 µM.
In the case of `COc1cc2c(cc1OC)C(=O)C(Oc1cccc(CN3CCOCC3)c1)C2` (stereo not drawn), the IC50 in test [1] was 219 µM.
For `CCN(CC)Cc1cccc(OC2Cc3cc(OC)c(OC)cc3C2=O)c1` (stereo not drawn), the IC50 was 190 µM in test [1] and 2.28 µM in test [2].
Consider `COc1cc2c(cc1OC)C(=O)C(Oc1ccc(CN3CCN(C)CC3)cc1)C2` (stereo not drawn), for which the values for the IC50 in test [1] and in test [2] were 347 µM and 1.42 µM, respectively.
With `COc1cc2c(cc1OC)C(=O)C(Oc1ccc(C(C)N3CCCC3)cc1)C2` (stereo not drawn), the values for the IC50 in test [1] and in test [2] were 130 µM and 0.14 µM, respectively.
Taken in the same sequence, the figures for `CCN(CC)C(C)c1cccc(OC2Cc3cc(OC)c(OC)cc3C2=O)c1` (stereo not drawn) were 199 µM and 1.36 µM.
`COc1cc2c(cc1OC)C(=O)C(Oc1ccc(CN(C)C)cc1)C2` (stereo not drawn): the IC50 was determined as 1980 µM in test [1] and 0.21 µM in test [2].
`COc1cc2c(cc1OC)C(=O)C(Oc1cccc(C(C)N3CCOCC3)c1)C2` (stereo not drawn): in test [1], inhibition was half-maximal at 247 µM (IC50).
Turning to `COc1cc2c(cc1OC)C(=O)C(Oc1cccc(C(C)N3CCN(C)CC3)c1)C2` (stereo not drawn), the figures for the IC50 in test [1] and in test [2] were 252 µM and 17.6 µM, respectively.
Taken in the same sequence, the figures for `COc1cc2c(cc1OC)C(=O)C(Oc1ccc(C(C)N3CCCCC3)cc1)C2` (stereo not drawn) were 176 µM and 0.13 µM.
As for `COc1cc2c(cc1OC)C(=O)C(Oc1cccc(CN3CCCCC3)c1)C2` (stereo not drawn), the figures for the IC50 in test [1] and in test [2] were 55.5 µM and 3.18 µM, respectively.
For the compound `CCN(CC)Cc1ccc(OC2Cc3cc(OC)c(OC)cc3C2=O)cc1` (stereo not drawn), the IC50 in test [1] stood at 251 µM; in test [2] it was 0.1 µM.
Take `COc1cc2c(cc1OC)C(=O)C(Oc1cccc(C(C)N3CCCC3)c1)C2` (stereo not drawn): the IC50 was found to be 212 µM in test [1] and 1.96 µM in test [2].
As for `COc1cc2c(cc1OC)C(=O)C(Oc1cccc(CN(C)C)c1)C2` (stereo not drawn), in test [1], the IC50 was found to be 207 µM.
On the same count and under the same terms, the result for `COc1cc2c(cc1OC)C(=O)C(Oc1cccc(CN3CCCC3)c1)C2` (stereo not drawn) reads 39.5 µM.
On to `COc1cc2c(cc1OC)C(=O)C(Oc1cccc(CN3CCN(C)CC3)c1)C2` (stereo not drawn), for which the values for the IC50 in test [1] and in test [2] were 209 µM and 6.41 µM, respectively.
For `COc1cc2c(cc1OC)C(=O)C(Oc1cccc(C(C)N(C)C)c1)C2` (stereo not drawn), the half-maximal inhibitory concentration (IC50) in test [1] came to 288 µM; in test [2], 0.82 µM.
For the compound `CCN(CC)C(C)c1ccc(OC2Cc3cc(OC)c(OC)cc3C2=O)cc1` (stereo not drawn), the IC50 came to 234 µM in test [1] and 0.22 µM in test [2].
For the compound `COc1cc2c(cc1OC)C(=O)C(Oc1cccc(C(C)N3CCCCC3)c1)C2` (stereo not drawn), the IC50 was found to be 158 µM in test [1] and 3.58 µM in test [2].
In turn, `COc1cc2c(cc1OC)C(=O)C(Oc1ccc(C(C)N(C)C)cc1)C2` (stereo not drawn) gave an IC50 in test [1] of 1370 µM.
As for `COc1cc2c(cc1OC)C(=O)C(Oc1ccc(C(C)N3CCN(C)CC3)cc1)C2` (stereo not drawn), the IC50 in test [1] was 393 µM; in test [2] it was 2.98 µM.
With `COc1cc2c(cc1OC)C(=O)C(Oc1ccc(CN3CCCCC3)cc1)C2` (stereo not drawn), the results for the IC50 in test [1] and in test [2] were 262 µM and 0.15 µM, respectively.
